Consider ten compounds from patent publication US9290478B2, “Substituted quinoxalines as FGFR kinase inhibitors” (ASTEX THERAPEUTICS LTD, priority 2010, dated 2016).

Where only a bound is given, the exact number is not on record here.

For one experiment, the target named is FGFR2 (h) (Homo sapiens, UniProt P21802). As to the kind of experiment: FGFR2 (enzymatic assay), TR-FRET. Type of experiment: biochemical. The note with it: 0.4 μM ATP; read-out: FGFR2 pIC50 (converted). As for the experimental part:
(§1) In a final reaction volume of 30 μL, FGFR2 (h) (150 ng/ml) was incubated with 50 mM HEPES pH 7.5, 6 mM MnCl2, 1 mM DTT, 0.1 mM Na3VO4, 0.01% Triton-X-100, 500 nM Btn-Flt3 and 0.4 μM ATP in the presence of compound (1% DMSO final). After incubation for 60 minutes at room temperature the reaction was stopped with 2.27 nM EU-anti P-Tyr, 7 mM EDTA, 31.25 nM SA-XL-665 and 0.02% BSA which was present for 60 minutes at room temperature. Time-Resolved Fluorescence Resonance Energy Transfer (TR-FRET) signal (ex340 nm. Em 620 nm, em 655 nm) was measured afterwards and results are expressed in (Relative Fluorescence Units). In this assay, the inhibitory effect of different compound concentrations (range 10 μM to 0.1 nM) was determined and used to calculate an IC50 (M) and pIC50 (−log IC50) value.

A further experiment addresses FGFR4 (h) (Homo sapiens, UniProt P22455). As to the kind of experiment: FGFR4 (enzymatic assay), TR-FRET. The experiment is classed as biochemical. The note with it: 5 μM ATP; read-out: FGFR4 pIC50 (converted). The protocol:
as §1, with “30 μL, FGFR4 (h) (60” for “30 μL, FGFR2 (h) (150”, “FGFR4 (h) (60 ng/ml) was” for “FGFR2 (h) (150 ng/ml) was”, “Btn-Flt3 and 5 μM ATP” for “Btn-Flt3 and 0.4 μM ATP”, “expressed in RFU (Relative Fluorescence” for “expressed in (Relative Fluorescence”

In experiment [1] the target is T1, Ba/F3-FGFR1-transfected cells (Homo sapiens, UniProt P11362).
T1 construct: BAF3-FGFR1 (MIN IL3) pIC50; other: minus IL3
T1 sequence (P11362 whole entry, change not shown): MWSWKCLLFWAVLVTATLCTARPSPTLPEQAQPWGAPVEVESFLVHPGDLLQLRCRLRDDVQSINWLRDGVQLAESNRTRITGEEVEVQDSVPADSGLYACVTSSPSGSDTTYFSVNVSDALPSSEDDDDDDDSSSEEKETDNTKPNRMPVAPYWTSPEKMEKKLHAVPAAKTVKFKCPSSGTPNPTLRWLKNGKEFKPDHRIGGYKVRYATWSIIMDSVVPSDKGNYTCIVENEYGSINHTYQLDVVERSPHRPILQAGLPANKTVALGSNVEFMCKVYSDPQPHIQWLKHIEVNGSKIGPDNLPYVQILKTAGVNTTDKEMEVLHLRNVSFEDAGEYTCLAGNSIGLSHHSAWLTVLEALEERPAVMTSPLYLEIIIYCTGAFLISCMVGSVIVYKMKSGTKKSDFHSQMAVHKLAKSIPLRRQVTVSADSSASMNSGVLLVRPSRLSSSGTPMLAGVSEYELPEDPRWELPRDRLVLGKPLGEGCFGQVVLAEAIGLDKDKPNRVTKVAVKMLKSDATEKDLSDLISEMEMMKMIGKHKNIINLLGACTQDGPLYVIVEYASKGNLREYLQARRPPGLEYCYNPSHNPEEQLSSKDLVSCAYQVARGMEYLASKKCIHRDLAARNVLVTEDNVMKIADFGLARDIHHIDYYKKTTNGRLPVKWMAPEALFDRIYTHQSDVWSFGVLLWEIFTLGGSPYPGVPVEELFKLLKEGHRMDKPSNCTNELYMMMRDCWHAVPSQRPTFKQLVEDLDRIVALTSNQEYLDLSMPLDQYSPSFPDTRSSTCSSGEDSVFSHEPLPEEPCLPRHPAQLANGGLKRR
As to the kind of experiment: Ba/F3-FGFR1 (minus IL3 or plus IL3) cellular proliferation assay. Type of experiment: cell-based. Particulars: minus IL3. As for the experimental part: (§2) Ba/F3-FGFR1 (Minus IL3 or Plus IL3) (Cellular Proliferation Assay)
(§3) In a 384 well plate, 100 nl of compound dilution in DMSO was sprayed before adding 50 μl cell culture medium (phenol red free RPMI-1640, 10% FBS, 2 mM L-Glutamine and 50 μg/ml Gentamycin) containing 20000 cells per well of Ba/F3-FGFR1-transfected cells. Cells were put in an incubator at 37° C. and 5% CO2. After 24 hours, 10 μl of Alamar Blue solution (0.5 mM K3Fe(CN)6, 0.5 mM K4Fe(CN)6, 0.15 mM Resazurin and 100 mM Phosphate Buffer) was added to the wells, incubated for 4 hours at 37° C. and 5% CO2 before RFU's (Relative Fluorescence Units) (ex. 540 nm., em. 590 nm.) were measured in a fluororescence plate reader.
(§4) In this assay, the inhibitory effect of different compound concentrations (range 10 μM to 0.1 nM) was determined and used to calculate an IC50 (M) and pIC50 (−log IC50) value.
(§5) As a counterscreen the same experiment was performed in the presence of 10 ng/ml murine IL3.

In experiment [2] the test system is Ba/F3-FGFR1-transfected cells. The experiment is described as above. The experiment is classed as cell-based. The note with it: plus 10 ng/ml murine IL3 (counterscreen); for IC50: 24 h, read-out: BAF3-FGFR1 (PLUS IL3) pIC50 (converted). The protocol:
as §2, §3, §4, §5

Experiment [3] deals with T2, Ba/F3-FGFR3-transfected cells (Homo sapiens, UniProt P22607).
T2 construct: BAF3-FGFR3 (MIN IL3) pIC50; other: minus IL3
T2 sequence (P22607 whole entry, change not shown): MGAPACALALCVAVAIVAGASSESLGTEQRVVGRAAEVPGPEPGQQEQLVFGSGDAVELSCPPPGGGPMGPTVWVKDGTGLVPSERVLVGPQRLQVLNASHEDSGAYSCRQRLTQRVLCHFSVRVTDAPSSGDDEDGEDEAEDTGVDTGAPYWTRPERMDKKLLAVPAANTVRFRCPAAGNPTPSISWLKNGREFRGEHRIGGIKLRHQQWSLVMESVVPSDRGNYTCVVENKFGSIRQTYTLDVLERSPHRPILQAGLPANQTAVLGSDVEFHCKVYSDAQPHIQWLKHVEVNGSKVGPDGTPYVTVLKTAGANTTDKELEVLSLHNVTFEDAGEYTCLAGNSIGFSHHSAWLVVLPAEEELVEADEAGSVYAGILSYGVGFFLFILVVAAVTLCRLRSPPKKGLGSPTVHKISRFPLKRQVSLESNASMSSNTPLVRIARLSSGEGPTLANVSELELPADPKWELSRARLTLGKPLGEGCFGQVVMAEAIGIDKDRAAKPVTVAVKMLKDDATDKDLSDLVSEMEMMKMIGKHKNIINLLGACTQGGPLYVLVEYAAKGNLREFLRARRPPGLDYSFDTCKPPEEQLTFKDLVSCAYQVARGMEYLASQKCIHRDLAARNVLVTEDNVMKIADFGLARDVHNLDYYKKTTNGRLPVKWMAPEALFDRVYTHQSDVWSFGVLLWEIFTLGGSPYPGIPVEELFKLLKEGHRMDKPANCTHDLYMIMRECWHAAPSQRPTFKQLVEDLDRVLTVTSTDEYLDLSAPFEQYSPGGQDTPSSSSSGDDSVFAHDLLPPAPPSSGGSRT
As to the kind of experiment: Ba/F3-FGFR3 (minus IL3 or plus IL3) cellular proliferation assay. The experiment is classed as cell-based. The note with it: minus IL3. The protocol:
(§6) Ba/F3-FGFR3 (Minus IL3 or Plus IL3) (Cellular Proliferation Assay)
as §3, with “nI” for “nl”, “Ba/F3-FGFR3-transfected” for “Ba/F3-FGFR1-transfected”
(§7) In this assay, the inhibitory effect of different compound concentrations (range 10 μM to 0.1 nM) was determined and used to calculate an IC50 (M) and pIC50 (−log IC50) value. As a counterscreen the same experiment was performed in the presence of 10 ng/ml murine IL3.

Experiment [4] deals with Ba/F3-FGFR3-transfected cells. The experiment is described as above. Particulars: plus 10 ng/ml murine IL3 (counterscreen); for IC50: 24 h, read-out: BAF3-FGFR3 (PLUS IL3) pIC50 (converted). The experiment is classed as cell-based. The protocol: as §6
as §3, with “nI” for “nl”, “Ba/F3-FGFR3-transfected” for “Ba/F3-FGFR1-transfected”
as §7

For experiment [5], the target named is T3, Ba/F3-KDR-transfected cells (Homo sapiens, UniProt P35968).
T3 construct: BAF3-KDR (MIN IL3) pIC50; other: minus IL3
T3 sequence (P35968 whole entry, change not shown): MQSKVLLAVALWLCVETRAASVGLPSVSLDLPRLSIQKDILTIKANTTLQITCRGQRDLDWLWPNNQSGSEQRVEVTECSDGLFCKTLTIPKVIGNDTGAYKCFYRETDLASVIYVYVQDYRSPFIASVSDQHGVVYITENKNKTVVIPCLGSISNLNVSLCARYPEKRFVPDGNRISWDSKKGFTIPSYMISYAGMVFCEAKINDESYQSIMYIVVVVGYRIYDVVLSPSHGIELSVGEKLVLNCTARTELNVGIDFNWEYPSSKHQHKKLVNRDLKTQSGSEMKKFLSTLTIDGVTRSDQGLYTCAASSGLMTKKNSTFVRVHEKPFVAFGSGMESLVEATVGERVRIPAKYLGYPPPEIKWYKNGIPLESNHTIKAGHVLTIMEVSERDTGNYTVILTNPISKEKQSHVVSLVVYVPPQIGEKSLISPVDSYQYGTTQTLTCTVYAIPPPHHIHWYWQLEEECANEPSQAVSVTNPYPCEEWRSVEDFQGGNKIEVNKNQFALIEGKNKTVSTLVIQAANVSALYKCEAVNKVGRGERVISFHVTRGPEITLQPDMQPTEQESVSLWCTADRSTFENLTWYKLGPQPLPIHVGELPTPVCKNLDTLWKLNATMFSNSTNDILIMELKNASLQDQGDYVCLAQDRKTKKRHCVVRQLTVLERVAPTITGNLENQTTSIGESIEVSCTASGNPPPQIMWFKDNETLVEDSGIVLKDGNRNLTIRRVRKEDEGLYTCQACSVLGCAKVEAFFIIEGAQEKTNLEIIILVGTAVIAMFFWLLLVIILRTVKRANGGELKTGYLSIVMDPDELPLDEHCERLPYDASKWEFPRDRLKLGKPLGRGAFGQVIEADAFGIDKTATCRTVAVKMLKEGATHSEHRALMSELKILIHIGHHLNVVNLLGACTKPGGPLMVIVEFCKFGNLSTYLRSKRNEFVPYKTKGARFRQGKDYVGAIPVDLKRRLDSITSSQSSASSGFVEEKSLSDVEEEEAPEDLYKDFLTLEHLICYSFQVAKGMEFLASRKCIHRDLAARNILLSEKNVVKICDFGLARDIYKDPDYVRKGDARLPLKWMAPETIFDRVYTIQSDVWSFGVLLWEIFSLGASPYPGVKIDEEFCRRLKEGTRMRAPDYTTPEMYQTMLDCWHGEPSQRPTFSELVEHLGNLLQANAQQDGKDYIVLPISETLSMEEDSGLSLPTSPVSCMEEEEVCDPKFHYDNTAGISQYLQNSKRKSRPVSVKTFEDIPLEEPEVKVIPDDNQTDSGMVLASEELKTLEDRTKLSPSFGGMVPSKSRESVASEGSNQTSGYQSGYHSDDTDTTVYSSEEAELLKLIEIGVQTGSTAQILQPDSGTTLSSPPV
As to the kind of experiment: Ba/F3-KDR (minus IL3 or plus IL3) cellular proliferation assay. Particulars: minus IL3. The experiment is classed as cell-based. The protocol:
(§8) Ba/F3-KDR (Minus IL3 or Plus IL3) (Cellular Proliferation Assay)
as §3, with “nI” for “nl”, “Ba/F3-KDR-transfected” for “Ba/F3-FGFR1-transfected”
as §7

For experiment [6], the system named is Ba/F3-KDR-transfected cells. Described as above. Type of experiment: cell-based. Particulars: plus 10 ng/ml murine IL3 (counterscreen); for IC50: 24 h, read-out: BAF3-KDR (PLUS IL3) pIC50 (converted). The protocol:
as §8
as §3, with “nI” for “nl”, “Ba/F3-KDR-transfected” for “Ba/F3-FGFR1-transfected”
as §7

FGFR2 (h), sequence (P21802 22-821): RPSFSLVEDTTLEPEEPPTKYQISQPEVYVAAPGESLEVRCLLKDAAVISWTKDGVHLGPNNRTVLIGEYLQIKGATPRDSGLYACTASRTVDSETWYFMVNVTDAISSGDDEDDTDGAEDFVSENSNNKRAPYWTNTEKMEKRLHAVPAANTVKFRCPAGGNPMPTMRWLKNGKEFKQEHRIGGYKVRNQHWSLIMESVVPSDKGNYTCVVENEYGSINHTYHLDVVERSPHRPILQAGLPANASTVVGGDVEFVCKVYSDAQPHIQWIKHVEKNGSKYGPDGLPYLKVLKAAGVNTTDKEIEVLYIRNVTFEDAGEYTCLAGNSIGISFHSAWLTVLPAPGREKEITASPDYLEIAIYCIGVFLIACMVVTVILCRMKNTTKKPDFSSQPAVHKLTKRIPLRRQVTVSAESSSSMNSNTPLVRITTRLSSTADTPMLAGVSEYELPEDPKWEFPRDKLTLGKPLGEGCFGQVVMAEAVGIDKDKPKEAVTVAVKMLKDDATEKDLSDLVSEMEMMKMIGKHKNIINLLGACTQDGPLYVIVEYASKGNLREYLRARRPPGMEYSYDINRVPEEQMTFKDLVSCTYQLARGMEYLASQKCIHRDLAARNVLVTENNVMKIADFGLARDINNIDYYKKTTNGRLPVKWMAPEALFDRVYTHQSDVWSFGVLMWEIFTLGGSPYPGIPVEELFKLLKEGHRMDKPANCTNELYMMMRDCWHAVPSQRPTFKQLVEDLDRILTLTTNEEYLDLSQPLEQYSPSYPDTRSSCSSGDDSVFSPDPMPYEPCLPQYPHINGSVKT
FGFR4 (h), sequence (P22455 22-802): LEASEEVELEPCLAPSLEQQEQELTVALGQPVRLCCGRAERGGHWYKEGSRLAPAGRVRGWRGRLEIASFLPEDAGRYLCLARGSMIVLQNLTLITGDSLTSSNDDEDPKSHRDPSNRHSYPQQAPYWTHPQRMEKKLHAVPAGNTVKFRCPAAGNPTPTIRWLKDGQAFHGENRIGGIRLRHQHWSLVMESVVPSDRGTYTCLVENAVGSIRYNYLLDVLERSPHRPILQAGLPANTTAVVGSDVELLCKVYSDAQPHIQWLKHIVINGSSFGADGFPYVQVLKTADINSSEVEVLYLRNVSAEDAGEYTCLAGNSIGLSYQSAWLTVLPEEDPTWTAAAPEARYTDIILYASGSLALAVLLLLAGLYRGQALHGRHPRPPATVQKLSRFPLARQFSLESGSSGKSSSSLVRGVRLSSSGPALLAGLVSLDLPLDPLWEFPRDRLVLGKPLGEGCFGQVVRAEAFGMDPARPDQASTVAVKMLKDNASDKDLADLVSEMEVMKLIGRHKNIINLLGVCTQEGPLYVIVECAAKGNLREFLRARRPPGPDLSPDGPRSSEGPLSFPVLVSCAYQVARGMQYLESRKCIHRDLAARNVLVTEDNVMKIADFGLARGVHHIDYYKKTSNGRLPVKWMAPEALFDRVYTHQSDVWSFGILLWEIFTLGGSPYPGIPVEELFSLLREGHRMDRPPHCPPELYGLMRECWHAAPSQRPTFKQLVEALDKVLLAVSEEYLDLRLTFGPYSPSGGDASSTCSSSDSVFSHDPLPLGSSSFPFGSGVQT

Turning to `COc1cc(OC)cc(/C(=C\CNC(C)C)c2ccc3ncc(-c4cnn(C)c4)nc3c2)c1` [Compound 8, {(Z)-3-(3,5-Dimethoxy-phenyl)-3-[3-(1-methyl-1H-pyrazol-4-yl)-quinoxalin-6-yl]-allyl}-isopropyl-amine], the IC50 was 10.7 nM on FGFR2 (h); 126 nM on FGFR4 (h); over 10000 nM in experiment [2]; over 10000 nM in experiment [4]; over 10000 nM in experiment [6]. Also, the “BAF3-FGFR1 (MIN IL3) pIC50” value in experiment [1] is on record as 6.49. The “BAF3-FGFR3 (MIN IL3) pIC50” value in experiment [3] stood at 6.72. In experiment [5], the “BAF3-KDR (MIN IL3) pIC50” value worked out at 5.18.

On to `COc1cc(OC)cc(C(=O)c2ccc3ncc(-c4cnn(C)c4)nc3c2)c1` [Compound 2], for which the IC50 at FGFR2 (h) was 209 nM; at FGFR4 (h), about 10000 nM; in experiment [2], over 10000 nM; in experiment [4], over 10000 nM; in experiment [6], over 10000 nM. Further, the “BAF3-FGFR1 (MIN IL3) pIC50” value in experiment [1] worked out at 5.58. Also, in experiment [3], the “BAF3-FGFR3 (MIN IL3) pIC50” value was 5.17. For the same compound, in experiment [5], the “BAF3-KDR (MIN IL3) pIC50” value was under 5.

Turning to `COc1cc(OC)cc(/C(=C\CNCC(F)(F)F)c2ccc3ncc(-c4cnn(C)c4)nc3c2)c1` [Compound 14, {(Z)-3-(3,5-Dimethoxy-phenyl)-3-[3-(1-methyl-1H-pyrazol-4-yl)-quinoxalin-6-yl]-allyl}-(2,2,2-trifluoro-ethyl)-amine], the IC50 at FGFR2 (h) was 12.9 nM; at FGFR4 (h), 28.8 nM; in experiment [2] it was over 10000 nM; in experiment [4] it was over 10000 nM; in experiment [6] it was over 10000 nM. Besides, the “BAF3-FGFR1 (MIN IL3) pIC50” value in experiment [1] stood at 6.17. Moreover, the “BAF3-FGFR3 (MIN IL3) pIC50” value in experiment [3] came out at 6.39. The “BAF3-KDR (MIN IL3) pIC50” value in experiment [5] was under 5.

As to `COc1cc(OC)cc(/C(=C\CN(C)C)c2ccc3ncc(-c4cnn(C)c4)nc3c2)c1` [Compound 10, {(Z)-3-(3,5-Dimethoxy-phenyl)-3-[3-(1-methyl-1H-pyrazol-4-yl)-quinoxalin-6-yl]-allyl}-dimethyl-amine], the IC50 on FGFR2 (h) was 15.8 nM; at FGFR4 (h), 107 nM; in experiment [2] it was over 10000 nM; in experiment [4], over 10000 nM; in experiment [6] it was over 10000 nM. The “BAF3-FGFR1 (MIN IL3) pIC50” value in experiment [1] is listed as 5.81. Also, the “BAF3-FGFR3 (MIN IL3) pIC50” value in experiment [3] amounted to 6.27. The “BAF3-KDR (MIN IL3) pIC50” value in experiment [5] is given as under 5.

Turning to `COc1cc(OC)cc(C(CCNC(C)C)c2ccc3ncc(-c4cnn(C)c4)nc3c2)c1` (single isomer, unassigned) [Compound 32a], the IC50 on FGFR2 (h) was 851 nM; at FGFR4 (h), 5500 nM. For the same compound, the “BAF3-FGFR1 (MIN IL3) pIC50” value in experiment [1] worked out at 5.14. For the same compound, in experiment [2], the “BAF3-FGFR1 (PLUS IL3) pIC50” value was under 5. Also, the “BAF3-FGFR3 (MIN IL3) pIC50” value in experiment [3] was about 5.03. For the same compound, the “BAF3-FGFR3 (PLUS IL3) pIC50” value in experiment [4] is recorded as under 5. In addition, the “BAF3-KDR (MIN IL3) pIC50” value in experiment [5] is on record as under 5. For the same compound, the “BAF3-KDR (PLUS IL3) pIC50” value in experiment [6] is given as under 5.

On to `COc1cc(OC)cc(C(CCN(C)C)c2ccc3ncc(-c4cnn(C)c4)nc3c2)c1.Cl` (centres unmarked) [Compound 21], for which the IC50 is 67.6 nM at FGFR2 (h); 355 nM on FGFR4 (h); over 10000 nM in experiment [2]; over 10000 nM in experiment [4]; over 10000 nM in experiment [6]. Besides, the “BAF3-FGFR1 (MIN IL3) pIC50” value in experiment [1] was 5.95. Besides, in experiment [3], the “BAF3-FGFR3 (MIN IL3) pIC50” value was 6.32. In experiment [5], the “BAF3-KDR (MIN IL3) pIC50” value is under 5.

In the case of `COc1cc(OC)cc(C(CCNC(C)C)c2ccc3ncc(-c4cnn(C)c4)nc3c2)c1.Cl` (centres unmarked) [Compound 29, {3-(3,5-Dimethoxy-phenyl)-3-[3-(1-methyl-1H-pyrazol-4-yl)-quinoxalin-6-yl]-propyl}-isopropyl-amine], the IC50 at FGFR2 (h) was 25.7 nM; at FGFR4 (h), 275 nM; in experiment [2], over 10000 nM; in experiment [4] it was over 10000 nM; in experiment [6] it was over 10000 nM. Besides, in experiment [1], the “BAF3-FGFR1 (MIN IL3) pIC50” value worked out at 6.18. Further, in experiment [3], the “BAF3-FGFR3 (MIN IL3) pIC50” value amounted to 6.44. Also, the “BAF3-KDR (MIN IL3) pIC50” value in experiment [5] is under 5.

`Cn1cc(-c2cnc3ccc(C(O)c4ccccc4)cc3n2)cn1` (centres unmarked) [Compound 28]: the IC50 at FGFR2 (h) was 2630 nM; on FGFR4 (h) it was 8510 nM; in experiment [2] it was over 10000 nM; in experiment [4] it was over 10000 nM; in experiment [6] it was over 10000 nM. In addition, the “BAF3-FGFR1 (MIN IL3) pIC50” value in experiment [1] is under 5. The “BAF3-FGFR3 (MIN IL3) pIC50” value in experiment [3] was under 5. Further, the “BAF3-KDR (MIN IL3) pIC50” value in experiment [5] is given as under 5.

In the case of `COc1cc(OC)cc(C(CCN2CCCC2=O)c2ccc3ncc(-c4cnn(C)c4)nc3c2)c1.Cl` (centres unmarked) [Compound 7], the IC50 on FGFR2 (h) was 38 nM; at FGFR4 (h) it was 158 nM; in experiment [2], over 10000 nM; in experiment [4], over 10000 nM; in experiment [6], over 10000 nM. Moreover, the “BAF3-FGFR1 (MIN IL3) pIC50” value in experiment [1] is reported as 5.52. Also, the “BAF3-FGFR3 (MIN IL3) pIC50” value in experiment [3] is on record as 5.8. Further, the “BAF3-KDR (MIN IL3) pIC50” value in experiment [5] turned out to be 5.13.

For the compound `COc1cc(OC)cc(C(CC#N)c2ccc3ncc(-c4cnn(C)c4)nc3c2)c1` (centres unmarked) [Compound 18], the IC50 was 145 nM at FGFR2 (h); 182 nM at FGFR4 (h); over 10000 nM in experiment [2]; over 10000 nM in experiment [4]; over 10000 nM in experiment [6]. In addition, the “BAF3-FGFR1 (MIN IL3) pIC50” value in experiment [1] came out at 5.6. In addition, the “BAF3-FGFR3 (MIN IL3) pIC50” value in experiment [3] came to 5.48. Moreover, the “BAF3-KDR (MIN IL3) pIC50” value in experiment [5] is under 5.
